Results from patent US11957713B2, “Compositions and methods for treating diseases and disorders of the central nervous system” (priority 2016, dated 2024).

Key:
CD45^+ brain cells = assay: γH2AX (flow cytometry, immunofluorescence) and annexin V in brain after systemic busulfan conditioning; format: in vivo, mice
Protocol: FIGS. 15A15-C depict identification of brain-resident putative μ progenitors by BU-susceptibility. […] Inset is a representative laser-scanning confocal microscope photomicrographs of co-immunostaining for γH2AX, neurons (NeuN), microglia (Ibal) or astrocytes (GFAP). Sca1e bar=[…]. Images were acquired at confocal microscope Radiance 2100 (Bio-Rad) 1×70 at magnification 20× and processed by the Soft Work 3.5.0; reconstruction was performed with Adobe Photoshop CS 8.0 software. Magnification 40× in the insets.
Previous studies have provided evidence for the existence of i) a functionally defined microglia precursor population located in the brain and susceptible to ablation upon administration of a busulfan-based conditioning and that may coincide with endogenous CNS-resident microglial progenitors (μP). Phosphorylated histone 2AX (γH2AX) is a sensitive and specific biomarker to track the cells targeted by busulfan in the brain. Thus, functional brain resident μP could be identified by taking advantage of busulfan and γH2AX, which is a pharmacodynamic marker of its cytotoxicity within these cells. γH2AX was investigated as a biomarker of busulfan cytotoxicity. In particular, the presence, distribution and cellular localization of γH2AX were studied by flow cytometry (FC) and immunofluorescence (IF) on brain slices from mice treated with systemic busulfan conditioning. […] By IF, γH2AX was hardly detectable in control mice, except for some γH2AX^+ foci found in few neuronal cells, mainly localized in the hippocampus (FIG. 16C top picture), where a correlation between physiological neuronal activity and H2AX phosphorylation has previously been shown. […] Similar experiments are on going in mice expressing reporter genes expressed by the promoter of markers of hematopoietic stem cell- and microglia-specific genes, such as Fgd5 or Cx3Cr1 in order to better track busulfan-susceptible cells.

[1] = tested on: bone marrow and brain clonogenic cells; assay: Colony forming unit (CFU) output of bone marrow and brain cells after conditioning; format: in vivo, mice; conditions: busulfan conditioning, 14 days after plating
Protocol: FIG. 6A depicts an experimental scheme for HCT. CFUs were plated from bone marrow (BM) and brain of naïve (UT), BU-treated and irradiated (IRR) mice, as well as from mice previously transplanted with CD45.2 GFP-transduced HSPCs (BU-HCT). FIG. 6B is a graph depicting number of colonies (#CFC) obtained from the tissues of BU and IRR animals. FIG. 6C is a graph depicting number of colonies (#CFC) and of GFP^+ CFCs obtained from the tissues of BU-HCT animals. FIG. 6D is a graph depicting frequency of GFP^+ cells (and lineage differentiation for BM) retrieved by FACS analysis in BM and brain of secondary recipient mice receiving BM or brain cells or peripheral blood mononuclear cells from primary recipients; mice were sacrificed 4 months after transplant.
HSPCs have been identified within extramedullary tissues and thought to be transiently localized at those sites and able to proliferate locally giving rise to tissue-resident myeloid cells, preferentially dendritic cells. Clonogenic potential was referred to the presence of these cells also in the brain, however upon establishment of parabiotic pairs and differently from what observed in other extra-medullary tissues, chimerism between the two animals was not observed in the brain. […]

[2] = tested on: microglia progenitors, CD45^+c-kit^+ cells; assay: Pretreatment to induce microglia progenitor proliferation; format: in vivo, mice; conditions: single dose of busulfan 25 mg/kg or ten days oral CSF 1R inhibitor
Protocol: These NP formulations were injected ICV in the brain of wild type adult animals that were pretreated with i) a single dose of busulfan 25 mg/kg or ii) ten days of oral administered CSF 1R inhibitor ((Elmore et al., Neuron. […] Five days after NP injection, animals were analyzed for the occurrence of Etoposide-mediated killing of microglia cells and/or their progenitors, using busulfan standard treatment (4 doses of 25 mg/kg) as reference for brain microglia progenitor ablation.

brain-resident μP = assay: Intra-brain (ICV) administration of busulfan through a cannula in the lateral ventricles

With `CS(=O)(=O)OCCCCOS(C)(=O)=O` [busulfan] the “early apoptosis by annexin V staining” value (CD45^+ brain cells; CD45^+ brain cells, particularly CD11b^+ and c-kit^+, post-busulfan) was “early apoptosis is also detected”, the “γH2AX signal by immunofluorescence on brain slices” value (CD45^+ brain cells; busulfan-treated mice, lateral ventricles, SVZ, RMS) was “γH2AX^+ signal was increased in nuclei of cells lining the lateral ventricles” and the “γH2AX signal by flow cytometry” value (CD45^+ brain cells; busulfan-treated versus control untreated, live CD45^+ cells, 1 and 5 days from the last busulfan dose) was “increase of γH2AX signal”. The CFU output [1] was “drastic reduction in the CFU output”, the “proliferation of microglia progenitors / expansion of CD45^+c-kit^+ cells in brain” value [2] was “induce the proliferation of microglia progenitors and/or expand CD45^+c-kit^+ cells in the brain” and the “neurotoxicity and local inflammation” value (brain-resident μP; ICV administration of busulfan) was “extensive neurotoxicity and local inflammation”. For the same compound, the “transplanted HSPC engraftment” value (brain-resident μP; ICV administration of busulfan, data not shown) was “nor able to favor transplanted HSPC engraftment” and the “exposure of brain-resident μP to busulfan versus systemic drug administration” value (brain-resident μP; ICV administration, different busulfan formulations, data not shown) was “not able to guarantee exposure of brain-resident μP to busulfan levels comparable to those reached by systemic drug administration”.
